Results on 16 compounds are retold here after ChEMBL document CHEMBL4354803, “Synthesis and biological activity of structurally diverse phthalazine derivatives: A systematic review” (Bioorg Med Chem, 2019).

Experiment [1] relates to Mus musculus. Kind of experiment: Anticonvulsant activity in ip dosed Kunming mouse assessed as protection against 50 mA current-induced seizure measured after 0.5 hrs by maximal electroshock seizure test. It is filed as functional. In general terms: The maximal electroshock test induces tonic seizures with an electrical stimulus.
Another experiment relates to CAPAN-1. The experiment in a line: Growth inhibition of human Capan1 cells after 7 days by CCK-8 method. Conditions: CAPAN-1, 168 h. Type of experiment: functional, cell-based. A general note: Tetrazolium dyes change colour on reduction, which living cells bring about.
In the next experiment the test system is MDA-MB-468. Kind of experiment: Growth inhibition of human MDA-MB-468 cells after 7 days by CCK-8 method. Type of experiment: functional, cell-based. Conditions: MDA-MB-468, 168 h.
Experiment [2] relates to Mus musculus. The experiment in a line: Antidiabetic activity in C57BL/KsJ mouse assessed as maximum reduction in blood glucose level at 200 mg/kg, po administered for 9 days by spectrometric method relative to control. It is filed as functional. On the set-up: scale not given: the % may be the effect or the level left.
Experiment [3] deals with Mus musculus. Kind of experiment: Potency index, ratio of valproate ED50 to compound ED50 for Anticonvulsant activity in ip dosed ICR mouse assessed as protection against 50 mA current-induced seizure pretreated for 30 mins followed by seizure induction measured for 60 mins by maximal electroshock seizure test. It is filed as functional.
Experiment [4] is filed under the species Mus musculus. The experiment in a line: animal or person. The note with it: ICR, ip.
For experiment [5], the target named is T1, Poly [ADP-ribose] polymerase 1 (Homo sapiens, UniProt P09874). The experiment in a line: Inhibition of N-terminal GST-tagged human PARP1 expressed in a Baculovirus infected Sf9 insect cells using biotinylated substrate incubated for 1 hr by colorimetric method.
T1 sequence (P09874 whole entry): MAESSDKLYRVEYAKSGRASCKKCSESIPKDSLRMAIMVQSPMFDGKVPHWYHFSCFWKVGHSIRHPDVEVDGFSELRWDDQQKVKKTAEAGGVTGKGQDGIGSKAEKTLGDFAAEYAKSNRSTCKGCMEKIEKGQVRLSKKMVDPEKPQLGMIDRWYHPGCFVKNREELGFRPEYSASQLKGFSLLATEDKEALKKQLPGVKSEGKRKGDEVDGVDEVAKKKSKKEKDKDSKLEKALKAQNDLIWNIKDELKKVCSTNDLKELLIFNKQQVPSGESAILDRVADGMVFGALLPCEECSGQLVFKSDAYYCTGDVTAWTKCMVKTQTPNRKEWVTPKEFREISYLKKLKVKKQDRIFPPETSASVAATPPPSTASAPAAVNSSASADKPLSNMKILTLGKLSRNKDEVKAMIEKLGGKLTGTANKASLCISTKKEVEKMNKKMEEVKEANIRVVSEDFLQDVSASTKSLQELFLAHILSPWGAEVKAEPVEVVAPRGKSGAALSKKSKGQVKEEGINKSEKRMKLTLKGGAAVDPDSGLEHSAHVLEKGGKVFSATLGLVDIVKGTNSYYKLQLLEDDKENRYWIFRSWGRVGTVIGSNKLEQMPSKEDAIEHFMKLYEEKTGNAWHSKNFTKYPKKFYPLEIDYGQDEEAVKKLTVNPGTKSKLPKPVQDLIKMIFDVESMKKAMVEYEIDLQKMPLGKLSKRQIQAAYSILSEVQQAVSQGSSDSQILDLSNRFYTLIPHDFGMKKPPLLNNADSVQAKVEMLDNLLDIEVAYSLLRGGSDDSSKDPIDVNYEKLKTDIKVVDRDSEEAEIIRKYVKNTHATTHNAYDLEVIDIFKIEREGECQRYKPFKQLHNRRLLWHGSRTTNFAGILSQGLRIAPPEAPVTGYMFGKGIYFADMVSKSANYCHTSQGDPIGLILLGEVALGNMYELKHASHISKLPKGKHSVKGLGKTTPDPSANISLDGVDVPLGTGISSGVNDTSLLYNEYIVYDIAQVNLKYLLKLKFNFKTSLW
Experiment [6] has as its target T1, Poly [ADP-ribose] polymerase 1. The experiment in a line: Inhibition of human PARP1 expressed in Escherichia coli using histone as substrate by ELISA.
In a further experiment the target is T2, Aurora kinase A (Homo sapiens, UniProt O14965).
T2 sequence (O14965 whole entry): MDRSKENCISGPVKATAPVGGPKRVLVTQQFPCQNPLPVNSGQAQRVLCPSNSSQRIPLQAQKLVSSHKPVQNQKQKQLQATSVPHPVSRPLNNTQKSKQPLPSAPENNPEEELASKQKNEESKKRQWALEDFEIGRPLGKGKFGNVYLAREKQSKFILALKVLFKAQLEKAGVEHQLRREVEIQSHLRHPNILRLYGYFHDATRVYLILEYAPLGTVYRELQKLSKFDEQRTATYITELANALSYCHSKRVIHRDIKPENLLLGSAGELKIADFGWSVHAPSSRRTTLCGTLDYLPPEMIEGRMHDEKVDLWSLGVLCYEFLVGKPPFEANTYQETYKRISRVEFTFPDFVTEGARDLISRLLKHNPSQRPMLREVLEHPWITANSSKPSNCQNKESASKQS
Kind of experiment: Inhibition of C-terminal His4-tagged Aurora A (unknown origin) using PKB-GSK2 biotinylated peptide as substrate incubated for 90 mins by ELISA. For orientation: An ELISA detects its analyte on a solid surface through an enzyme-linked reagent.

Another experiment deals with HCT-116. Kind of experiment: Antiproliferative activity against human HCT116 cells after 5 days by CellTiter-Glo Luminescent Cell Viability Assay. Type of experiment: functional, cell-based. Conditions: HCT-116, 120 h.
For a further experiment, the system named is HUVEC. Kind of experiment: Induction of HUVEC proliferation incubated for 20 hrs followed by 3H thymidine incorporation and measured after 4 hrs by beta counting method. It is filed as functional, cell-based. The note with it: Homo sapiens.
Experiment [7] is described as follows: Induction of mouse primary oligodendrocytes incubated for 16 to 24 hrs by WSTl reagent based assay. Type of experiment: functional.
For experiment [8], the system named is MCF7. The experiment in a line: Cytotoxicity against human MCF7 cells. Type of experiment: functional. Conditions: read-out: LC50 (the source's name).
Experiment [9] has as its system Mus musculus. Kind of experiment: Antinociceptive activity in Balb/c mouse at 20 mg/kg, ip after 180 mins by tail flick test relative to control. It is filed as functional.
The test system of experiment [10] is Mus musculus. The experiment in a line: Antinociceptive activity in Balb/c mouse at 20 mg/kg, ip after 120 mins by tail flick test relative to control. It is filed as functional.
Experiment [11] in a line: Inhibition of recombinant human PARP expressed in Escherichia coli in presence of NAD+ by microplate scintillation counting method.
Experiment [12] in a line: Inhibition of PARP in human C41 cells assessed as reduction in protein accumulation preincubated for 30 mins followed by H2O2 addition and measured after 10 mins by FITC/DAPI-staining based fluorescence method. Type of experiment: cell-based.
For another experiment, the target named is T3, Prostaglandin E synthase (Homo sapiens, UniProt O14684).
T3 sequence (O14684 whole entry): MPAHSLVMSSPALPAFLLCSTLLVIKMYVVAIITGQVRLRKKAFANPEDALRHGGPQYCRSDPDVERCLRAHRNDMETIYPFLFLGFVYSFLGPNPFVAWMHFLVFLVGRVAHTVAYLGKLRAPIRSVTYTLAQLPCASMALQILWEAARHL
The experiment in a line: Inhibition of mPGES-1 in human A549 cells assessed as reduction in […] induced PGE2 release preincubated for 30 mins followed by […] addition and measured after 16 to 20 hrs by HTRF assay. It is filed as cell-based.

For experiment [13], the target named is T1, Poly [ADP-ribose] polymerase 1. The experiment in a line: Inhibition of human PARP1 expressed in Escherichia coli incubated for 10 mins by colorimetric assay.
In experiment [14] the test system is HepG2. Kind of experiment: Potency index, ratio of sorafenib IC50 to compound IC50 for cytotoxicity against human HepG2 cells by sulforhodamine B assay. Type of experiment: functional.
For experiment [15], the system named is HepG2. The experiment in a line: Potency index, ratio of doxorubicin IC50 to compound IC50 for cytotoxicity against human HepG2 cells by sulforhodamine B assay. Type of experiment: functional.
The test system of experiment [16] is HepG2. Kind of experiment: cells. Conditions: Homo sapiens, HepG2, 24 h.
Description: Cytotoxicity against human HepG2 cells after 24 hrs by MTT assay
Experiment [17] relates to MCF7. The experiment in a line: cells. Conditions: Homo sapiens, MCF7, 24 h.
Description: Cytotoxicity against human MCF7 cells after 24 hrs by MTT assay
Experiment [18] deals with Cystic fibrosis transmembrane conductance regulator (Homo sapiens, UniProt P13569, F508DEL/H148Q/I152L). The experiment in a line: Inhibition of human CFTR F508 deletion mutant expressed in rat FRT cells coexpressing YFP-H148Q/I152L 25,22 incubated for 60 to 120 mins in presence of forskolin by fluorescent method. It is filed as cell-based.
Sequence of Cystic fibrosis transmembrane conductance regulator (P13569 whole entry, looked up, stated change not applied): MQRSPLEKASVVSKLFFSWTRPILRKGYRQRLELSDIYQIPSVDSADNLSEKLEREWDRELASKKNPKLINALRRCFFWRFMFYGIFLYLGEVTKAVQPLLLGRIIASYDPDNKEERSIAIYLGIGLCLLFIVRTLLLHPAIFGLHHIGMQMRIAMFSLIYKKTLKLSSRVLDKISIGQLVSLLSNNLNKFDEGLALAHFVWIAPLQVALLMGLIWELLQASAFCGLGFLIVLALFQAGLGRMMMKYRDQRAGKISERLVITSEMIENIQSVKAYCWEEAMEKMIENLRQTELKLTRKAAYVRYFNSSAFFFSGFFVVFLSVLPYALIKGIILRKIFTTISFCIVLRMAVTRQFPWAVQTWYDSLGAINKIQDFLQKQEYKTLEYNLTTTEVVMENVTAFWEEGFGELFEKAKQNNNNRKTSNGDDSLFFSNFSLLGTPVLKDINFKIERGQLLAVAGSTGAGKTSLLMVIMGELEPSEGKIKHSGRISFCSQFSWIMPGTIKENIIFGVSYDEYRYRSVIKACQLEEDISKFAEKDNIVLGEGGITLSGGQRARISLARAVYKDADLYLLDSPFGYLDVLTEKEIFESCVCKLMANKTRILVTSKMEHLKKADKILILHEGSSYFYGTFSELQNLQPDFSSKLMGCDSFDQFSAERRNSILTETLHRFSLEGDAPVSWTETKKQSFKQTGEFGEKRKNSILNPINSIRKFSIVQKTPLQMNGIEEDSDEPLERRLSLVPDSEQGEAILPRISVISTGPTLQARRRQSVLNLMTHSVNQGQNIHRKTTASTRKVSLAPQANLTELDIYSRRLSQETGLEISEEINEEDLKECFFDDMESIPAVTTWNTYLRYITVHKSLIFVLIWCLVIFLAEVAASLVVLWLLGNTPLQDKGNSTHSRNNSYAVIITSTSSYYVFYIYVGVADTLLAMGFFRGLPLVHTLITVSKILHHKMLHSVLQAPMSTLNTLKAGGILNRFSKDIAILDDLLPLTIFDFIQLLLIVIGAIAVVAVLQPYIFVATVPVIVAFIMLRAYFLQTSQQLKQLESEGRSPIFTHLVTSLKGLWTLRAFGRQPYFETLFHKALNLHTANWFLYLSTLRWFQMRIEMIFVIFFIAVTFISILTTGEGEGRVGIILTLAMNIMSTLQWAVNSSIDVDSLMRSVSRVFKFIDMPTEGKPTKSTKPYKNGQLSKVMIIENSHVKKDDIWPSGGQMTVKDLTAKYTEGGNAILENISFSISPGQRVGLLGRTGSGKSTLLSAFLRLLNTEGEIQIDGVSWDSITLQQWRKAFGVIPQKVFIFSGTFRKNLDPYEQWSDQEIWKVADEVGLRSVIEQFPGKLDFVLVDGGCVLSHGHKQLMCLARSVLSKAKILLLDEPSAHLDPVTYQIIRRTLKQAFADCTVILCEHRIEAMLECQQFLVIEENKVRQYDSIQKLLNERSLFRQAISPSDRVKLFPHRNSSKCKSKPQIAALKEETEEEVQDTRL

A value given as a limit tells only on which side of the number the result lay.

In general, ED50 refers to the dose that gives a 50% effect, or the effect in half of the subjects. As to `FC(F)(F)c1cccc(COc2nn3cnnc3c3ccccc23)c1`, the 50% effective dose (ED50) in the experiment on Mus musculus [1] turned out to be 9.3 mg/kg.

Broadly, the IC50 is the concentration that inhibits the measured activity by half. In the case of `O=C(c1cc(Cc2n[nH]c(=O)c3ccccc23)ccc1F)N1CCn2c(nnc2C(F)F)C1`, the IC50 with CAPAN-1 and in the experiment with MDA-MB-468 was 0.003 nM in each case.

In the case of `Cc1nn(CCOc2ccc(CC3SC(=O)NC3=O)cc2)c(=O)c2ccccc12` (centres undefined), the Activity result in the experiment with Mus musculus [2] was “<=61%”.

Consider `COC(=O)CSc1nnc(Cn2[nH]c(=O)c3ccccc3c2=O)o1`, for which the “Ratio ED50” value in the experiment on Mus musculus [3] is 10. The compound further had an ED50 in the experiment listed under Mus musculus [4] of 172 µmol/kg.

In experiment [5], `O=C(CCCn1nc(-c2ccccc2)c2ccccc2c1=O)Nc1cccc(Cl)c1` displayed an IC50 of 97 nM.

As to `CCN1CCCC2CN(C(=O)c3cc(Cc4n[nH]c(=O)c5ccccc45)ccc3F)CC21` (centres undefined), the half-inhibitory concentration (IC50) in experiment [6] was 2 nM.

With `Cc1cc(Nc2nn(C(C)C)c(=O)c3cc(OCCN4CCOCC4)ccc23)n[nH]1`, the IC50 on Aurora kinase A came out at 420 nM; in the experiment on HCT-116, 7 nM.

For orientation: EC50 means the concentration at which the effect is half-maximal. For the compound `O=c1[nH]nc(-c2ccc(N3CCCCCC3)c([N+](=O)[O-])c2)c2ccccc12`, the values for the concentration for a half-maximal effect (EC50) (in the experiment on HUVEC; in [7]) were 2500 nM and 200 nM, respectively.

For `CC(S)C[C@H](NC(=O)Cn1ncc2ccccc2c1=O)C(N)=O` (some centres undefined), in the experiment with MCF7 [8], the CC50 turned out to be 20300 nM.

With `CN(C)CCn1nc(-c2ccncc2)c2ccccc2c1=O`, the MPE is listed as 18.26% in the experiment on Mus musculus [9] and 14.84% with Mus musculus [10].

Take `O=C(c1cc(Cc2n[nH]c(=O)c3ccccc23)ccc1F)N1CCN(c2ncccn2)CC1`: in experiment [11], the IC50 turned out to be 0.7 nM. The EC50 in [12] turned out to be 0.7 nM.

Consider `O=C(Nc1ccc2cnn(-c3ccc(Br)cc3)c(=O)c2c1)c1c(F)cccc1Cl`, for which the IC50 on Prostaglandin E synthase is less than 50 nM.

For `O=C(c1cc(Cc2n[nH]c(=O)c3ccccc23)ccc1F)N1CCn2c(nnc2C2CC2)C1`, the IC50 in experiment [13] is 8.41 nM.

For `O=C(Cn1nc(Cc2ccccc2)c2ccccc2c1=O)Nc1ccccc1Cl`, the “Ratio IC50” value in the experiment with HepG2 [14] and in the experiment on HepG2 [15] was 2.9 in each case.

With `O=c1c2ccccc2c(Cc2ccccc2)nn1CC(=S)NNS(=O)(=O)c1ccccc1`, the IC50 turned out to be 22200 nM in the experiment on HepG2 [16] and 19800 nM with MCF7 [17].

`Cc1nc2ccc(N(C)C(=O)Cn3nc(-c4cccc(Cl)c4)c4ccccc4c3=O)cc2o1`: in experiment [18], the EC50 was less than 10000 nM.
